What all share (test): In Vitro Assay Dipeptidyl Peptidase IV. Fibroblast Activation Protein and Prolyl Oligopeptidase
One assay has as its target T1, Prolyl endopeptidase FAP (Homo sapiens, UniProt Q12884).
T1 sequence (Q12884 whole entry): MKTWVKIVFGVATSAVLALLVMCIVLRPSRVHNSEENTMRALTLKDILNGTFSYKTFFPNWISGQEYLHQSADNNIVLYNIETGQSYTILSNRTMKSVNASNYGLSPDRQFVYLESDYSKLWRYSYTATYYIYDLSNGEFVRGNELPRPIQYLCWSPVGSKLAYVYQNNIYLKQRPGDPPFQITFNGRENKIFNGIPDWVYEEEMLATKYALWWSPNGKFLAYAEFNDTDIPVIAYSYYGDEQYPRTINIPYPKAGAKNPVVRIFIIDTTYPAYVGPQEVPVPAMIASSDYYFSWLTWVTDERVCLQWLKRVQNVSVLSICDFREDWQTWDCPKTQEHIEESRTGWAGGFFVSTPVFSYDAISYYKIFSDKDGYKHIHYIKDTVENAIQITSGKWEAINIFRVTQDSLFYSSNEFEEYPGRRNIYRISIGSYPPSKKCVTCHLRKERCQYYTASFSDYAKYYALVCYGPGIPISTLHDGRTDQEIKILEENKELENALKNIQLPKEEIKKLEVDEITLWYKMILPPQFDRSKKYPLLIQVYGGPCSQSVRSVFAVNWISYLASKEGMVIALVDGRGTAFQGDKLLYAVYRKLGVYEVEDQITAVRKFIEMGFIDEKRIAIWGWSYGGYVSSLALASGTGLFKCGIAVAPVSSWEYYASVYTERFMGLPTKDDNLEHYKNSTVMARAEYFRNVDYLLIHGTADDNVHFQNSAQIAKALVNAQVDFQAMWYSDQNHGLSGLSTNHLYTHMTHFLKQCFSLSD
On the procedure: (§1) The purpose of this assay is to determine the IC50 of various inhibitors against recombinant human dipeptidyl peptidase IV (DPPIV), fibroblast activation protein (FAP) or prolyl oligopeptidase (PREP). The assays are conducted in the following steps:1 Dissolve the compound in DMSO to a final concentration of […]. […] Serial dilute (1:10) the 1 mM compound stocks prepared previously into the appropriate assay buffer (FAP: 50 mM Tris, 140 mM NaCl, pH 7.5/PREP: 25 mM Tris, 0.25 M NaCl, pH 7.5/DPPIV: 25 mM Tris, pH 8.0) to one row of a 96-well plate. 3. […] 4. Dilute the enzymes into their appropriate assay buffers. The final enzyme concentrations should be 0.1, 1.2, and 0.6 nM for DPPIV, FAP and PREP respectively. Add 180 μL to each well needed in columns 2-10. Column 1 (A,B,C) should be prepared with 200 ul of appropriate assay buffer as control. Column 1 (D,E,F,G,H) should be prepared with 20 ul of appropriate assay buffer and 180 ul enzyme as no inhibitor control. 5. Add 20 μL of the compound of interest from the dilution plate prepared in step 2 to columns 2-10 of the assay plate where appropriate. Each sample should be tested in triplicate. Allow this to incubate for 10 minutes at room temperature, shaking the plate for the first two minutes. 6. Add 10 μL of 20× substrate prepared in step 3 to each well and allow this to incubate for 15 minutes at room temperature, shaking the plate for the first two minutes. 7. Read the fluorescence at λex: 380, λem: 460.

Another assay deals with Dipeptidyl peptidase 4 (Homo sapiens, UniProt P27487). The procedure:
as §1

The target of the next assay is T2, Prolyl endopeptidase (Homo sapiens, UniProt P48147).
T2 sequence (P48147 whole entry): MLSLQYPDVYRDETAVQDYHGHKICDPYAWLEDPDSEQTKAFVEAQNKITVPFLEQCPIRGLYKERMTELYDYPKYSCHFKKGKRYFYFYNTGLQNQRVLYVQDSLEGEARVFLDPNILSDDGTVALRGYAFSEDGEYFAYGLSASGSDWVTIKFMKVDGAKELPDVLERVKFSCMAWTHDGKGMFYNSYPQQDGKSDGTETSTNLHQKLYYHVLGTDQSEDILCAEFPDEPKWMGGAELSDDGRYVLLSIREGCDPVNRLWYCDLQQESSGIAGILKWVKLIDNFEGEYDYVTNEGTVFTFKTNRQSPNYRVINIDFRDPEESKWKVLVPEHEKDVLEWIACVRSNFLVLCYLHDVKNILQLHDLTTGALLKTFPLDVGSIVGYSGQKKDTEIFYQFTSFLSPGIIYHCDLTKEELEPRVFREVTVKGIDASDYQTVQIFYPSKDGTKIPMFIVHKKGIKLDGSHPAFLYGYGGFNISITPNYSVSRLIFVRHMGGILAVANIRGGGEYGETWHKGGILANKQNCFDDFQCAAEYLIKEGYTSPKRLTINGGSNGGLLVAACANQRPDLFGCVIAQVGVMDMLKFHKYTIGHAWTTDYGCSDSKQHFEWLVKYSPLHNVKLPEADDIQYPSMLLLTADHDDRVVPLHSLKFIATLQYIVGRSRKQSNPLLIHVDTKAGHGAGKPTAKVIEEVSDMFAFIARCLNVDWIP
The procedure: as §1

pIC50: −log10 of the molar value. “And” between values parts separate entries of the source, which are not always exact repeats. Equal entries are not always repeated. Where a SMILES comes first, the peptide text is derived from it.

Sequence of Dipeptidyl peptidase 4 (P27487 whole entry): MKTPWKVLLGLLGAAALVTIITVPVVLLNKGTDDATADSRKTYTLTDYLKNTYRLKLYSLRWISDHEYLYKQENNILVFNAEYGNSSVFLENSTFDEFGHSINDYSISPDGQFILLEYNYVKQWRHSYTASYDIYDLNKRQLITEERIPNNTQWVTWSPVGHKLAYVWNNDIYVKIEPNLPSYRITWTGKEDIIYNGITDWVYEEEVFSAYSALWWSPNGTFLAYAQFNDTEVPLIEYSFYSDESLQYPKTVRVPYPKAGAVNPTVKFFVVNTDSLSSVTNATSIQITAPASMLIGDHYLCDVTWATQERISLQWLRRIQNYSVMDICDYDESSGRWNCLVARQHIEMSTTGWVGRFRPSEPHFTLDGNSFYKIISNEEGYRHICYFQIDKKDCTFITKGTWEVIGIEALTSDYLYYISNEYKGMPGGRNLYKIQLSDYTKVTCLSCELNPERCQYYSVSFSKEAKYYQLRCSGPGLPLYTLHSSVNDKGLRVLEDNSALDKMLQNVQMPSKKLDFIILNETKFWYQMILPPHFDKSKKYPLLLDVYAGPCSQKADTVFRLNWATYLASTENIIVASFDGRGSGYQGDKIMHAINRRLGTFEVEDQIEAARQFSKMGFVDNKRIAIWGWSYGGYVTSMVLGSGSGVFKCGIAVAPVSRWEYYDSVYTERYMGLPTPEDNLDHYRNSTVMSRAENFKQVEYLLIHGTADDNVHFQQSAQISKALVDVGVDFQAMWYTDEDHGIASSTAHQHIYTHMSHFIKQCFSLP

As for `N[C@@H](CCCCNC(=O)CCCNC(=O)CN1CCN(CC(=O)O)CCN(CC(=O)O)CCN(CC(=O)O)CC1)C(=O)N1CCC[C@H]1B(O)O` [US11707539, Compound 6551], on Prolyl endopeptidase FAP, the pIC50 was 8.59 and 8.70.

In the case of `CC(C)[C@H](NC(=O)CNC(=O)CNC(=O)CN1CCN(CC(=O)O)CCN(CC(=O)O)CCN(CC(=O)O)CC1)C(=O)N[C@H](C)C(=O)N1CCC[C@H]1B(O)O` [US11707539, Compound 6522] (HELM PEPTIDE1{[O=C(O)CN1CCN(CC(=O)O)CCN(CC(=O)[*:2])CCN(CC(=O)O)CC1].G.G.V.[dA].[OB(O)[C@@H]1CCCN1[*:1]]}$$$$V2.0), the pIC50 against Dipeptidyl peptidase 4 is under 4.00; against Prolyl endopeptidase it was 4.89; against Prolyl endopeptidase FAP, 8.46 and 7.92.

Values taken from BindingDB's records for patent US11707539 (Tufts College, 2023).
